{
  "source": "patent US8648066B2",
  "about": "(Exelixis, Inc., priority 2009, dated 2014)",
  "target": "mTOR/GbL/Raptor (mTORC1) (Homo sapiens, UniProt P42345)",
  "assay": "mTOR/GbL/Raptor (mTORC1) ELISA assay",
  "assay_type": "biochemical",
  "settings": "phosphorylation of 4E-BP1; 0.2 nM mTORC1, 10 μM ATP; read-out: IC50 in this assay (mTORC1 ELISA)",
  "how_it_was_run": "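ELISA read-out: phospho-4E-BP1 captured on Ni-chelate plates and detected with anti-phospho antibody plus HRP-anti-IgG luminescence. The kinase step ran 120 min at ambient temperature with 0.2 nM human mTORC1, 10 µM ATP, 50 nM His-4E-BP1, 10 mM MnCl2, pH 7.2 HEPES.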",
  "data": [
    {"smiles": "COc1cc2nccc(N3CCOc4ccc(-c5cnc6nc(N)[nH]c6c5)cc4C3)c2cc1OC", "note": "[Example 188, 6-{4-[6,7-bis(methyloxy)quinolin-4-yl]-2,3,4,5-tetrahydro-1,4-benzoxazepin-7-yl}-1H-imidazo[4,5-b]pyridin-2-amine]", "values": [
      {"measurement": "IC50", "result": "50 to 250", "unit": "nM"}
    ]},
    {"smiles": "CC1(C)CCc2nc(CO)nc(N3CCOc4ccc(-c5cnc6sc(N)nc6c5)cc4C3)c2C1", "note": "[Example 308, {4-[7-(2-amino[1,3]thiazolo[5,4-b]pyridin-6-yl)-2,3-dihydro-1,4-benzoxazepin-4(5H)-yl]-6,6-dimethyl-5,6,7,8-tetrahydroquinazolin-2-yl}methanol]", "values": [
      {"measurement": "IC50", "result": "≤ 10", "unit": "nM"}
    ]},
    {"smiles": "CC[C@H]1CCc2c(ncnc2N2CCOc3ccc(-c4cnc5nc(NC(=O)OC)[nH]c5c4)cc3C2)C1", "note": "[Example 578, methyl (6-{4-[(7S)-7-ethyl-5,6,7,8-tetrahydroquinazolin-4-yl]-2,3,4,5-tetrahydro-1,4-benzoxazepin-7-yl}-1H-imidazo[4,5-b]pyridin-2-yl)carbamate]", "values": [
      {"measurement": "IC50", "result": "10 to 50", "unit": "nM"}
    ]},
    {"smiles": "Cc1nc(CN(C)C)nc(N2CCOc3ccc(-c4cnc5sc(N)nc5c4)cc3C2)c1Br", "note": "[Example 673, 6-(4-{5-bromo-2-[(dimethylamino)methyl]-6-methylpyrimidin-4-yl}-2,3,4,5-tetrahydro-1,4-benzoxazepin-7-yl)[1,3]thiazolo[5,4-b]pyridin-2-amine]", "values": [
      {"measurement": "IC50", "result": "250 to 1000", "unit": "nM"}
    ]},
    {"smiles": "CC[C@H]1CCc2c(ncnc2N2CCOc3ccc(-c4cnc(N)c(S(=O)(=O)N5C[C@@H]6C[C@H]5CN6)c4)cc3C2)C1", "note": "[Example 437, 3-[(1S,4S)-2,5-diazabicyclo[2.2.1]hept-2-ylsulfonyl]-5-{4-[(7S)-7-ethyl-5,6,7,8-tetrahydroquinazolin-4-yl]-2,3,4,5-tetrahydro-1,4-benzoxazepin-7-yl}pyridin-2-amine]", "values": [
      {"measurement": "IC50", "result": "10 to 50", "unit": "nM"}
    ]},
    {"smiles": "CC1(C)CCc2ncnc(N3CCOc4ccc(-c5cnc(N)c(S(=O)(=O)N6CCCC(O)C6)c5)cc4C3)c2C1", "note": "(stereo not drawn) [Example 316]", "values": [
      {"measurement": "IC50", "result": "10 to 50", "unit": "nM"}
    ]},
    {"smiles": "Cc1ncnc(N2CCOc3ccc(-c4cnc(N)cn4)cc3C2)c1Cc1ccc(F)cc1", "note": "[Example 151, 5-(4-{5-[(4-fluorophenyl)methyl]-6-methylpyrimidin-4-yl}-2,3,4,5-tetrahydro-1,4-benzoxazepin-7-yl)pyrazin-2-amine]", "values": [
      {"measurement": "IC50", "result": "50 to 250", "unit": "nM"}
    ]},
    {"smiles": "C=CCc1c(C)nc(CN(C)C)nc1N1CCOc2ccc(-c3cnc4sc(N)nc4c3)cc2C1", "note": "[Example 670, 6-(4-{2-[(dimethylamino)methyl]-6-methyl-5-prop-2-en-1-ylpyrimidin-4-yl}-2,3,4,5-tetrahyhdro-1,4-benzoxazepin-7-yl)[1,3]thiazolo[5,4-b]pyridin-2-amine]", "values": [
      {"measurement": "IC50", "result": "10 to 50", "unit": "nM"}
    ]},
    {"smiles": "CCNc1nc(N2CCOc3ccc(-c4ccc5nc(NCC)[nH]c5c4)cc3C2)c2ccccc2n1", "note": "[Example 270, N-ethyl-4-{7-[2-(ethylamino)-1H-benzimidazol-6-yl]-2,3-dihydro-1,4-benzoxazepin-4(5H)-yl}quinazolin-2-amine]", "values": [
      {"measurement": "IC50", "result": "250 to 1000", "unit": "nM"}
    ]},
    {"smiles": "CN1CCN(S(=O)(=O)c2cc(-c3ccc4c(c3)CN(c3ncnc5c3CC(C)(C)CC5)CCO4)cnc2N)CC1", "note": "[Example 516, 5-[4-(6,6-dimethyl-5,6,7,8-tetrahydroquinazolin-4-yl)-2,3,4,5-tetrahydro-1,4-benzoxazepin-7-yl]-3-[(4-methylpiperazin-1-yl)sulfonyl]pyridin-2-amine]", "values": [
      {"measurement": "IC50", "result": "50 to 250", "unit": "nM"}
    ]},
    {"smiles": "Nc1ccc(-c2ccc3c(c2)CN(c2ccnc4ccccc24)CCO3)cn1", "note": "[Example 226, 5-(4-quinolin-4-yl-2,3,4,5-tetrahydro-1,4-benzoxazepin-7-yl)pyridin-2-amine]", "values": [
      {"measurement": "IC50", "result": "10 to 50", "unit": "nM"}
    ]},
    {"smiles": "Cn1c(N)nc2cc(-c3ccc4c(c3)CN(c3ccnc5ccccc35)CCO4)ccc21", "note": "[Example 116, 1-methyl-5-(4-quinolin-4-yl-2,3,4,5-tetrahydro-1,4-benzoxazepin-7-yl)-1H-benzimidazol-2-amine]", "values": [
      {"measurement": "IC50", "result": "1000 to 2000", "unit": "nM"}
    ]},
    {"smiles": "CC1(C)CCc2ncnc(N3CCOc4ccc(-c5cnc(F)c(NS(C)(=O)=O)c5)cc4C3)c2C1", "note": "[Example 632, N-{5-[4-(6,6-dimethyl-5,6,7,8-tetrahydroquinazolin-4-yl)-2,3,4,5-tetrahydro-1,4-benzoxazepin-7-yl]-2-fluoropyridin-3-yl}methanesulfonamide]", "values": [
      {"measurement": "IC50", "result": "250 to 1000", "unit": "nM"}
    ]},
    {"smiles": "CCc1nc(CN(C)C)nc(N2CCOc3ccc(-c4cnc5[nH]c(C)nc5c4)cc3C2)c1C", "note": "[Example 344, 1-{4-ethyl-5-methyl-6-[7-(2-methyl-3H-imidazo[4,5-b]pyridin-6-yl)-2,3-dihydro-1,4-benzoazepin-4(5H)-yl]pyrimnidin-2-yl}-N,N-dimethylmethanamine]", "values": [
      {"measurement": "IC50", "result": "250 to 1000", "unit": "nM"}
    ]},
    {"smiles": "Cc1nc2ccc(-c3ccc4c(c3)CN(c3ncnc(C)c3Cc3cccc(Cl)c3)CCO4)cc2[nH]1", "note": "[Example 73, 4-{5-[(3-chlorophenyl)methyl]-6-methylpyrimidin-4-yl}-7-(2-methyl-1H-benzimidazol-6-yl)-2,3,4,5-tetrahydro-1,4-benzoxazepine]", "values": [
      {"measurement": "IC50", "result": "≤ 10", "unit": "nM"}
    ]},
    {"smiles": "Cc1ncnc(N2CCOc3ccc(-c4ccc5nc(N)[nH]c5n4)cc3C2)c1Cc1ccc(F)cc1", "note": "[Example 194, 5-(4-{5-[(4-fluorophenyl)methyl]-6-methylpyrimidin-4-yl}-2,3,4,5-tetrahydro-1,4-benzoxazepin-7-yl)-3H-imidazo[4,5-b]pyridin-2-amine]", "values": [
      {"measurement": "IC50", "result": "10 to 50", "unit": "nM"}
    ]},
    {"smiles": "CCc1nc2cc(-c3ccc4c(c3)CN(c3ncnc5c3CC(C)(C)CC5)CCO4)cnc2[nH]1", "note": "[Example 220, 4-(6,6-dimethyl-5,6,7,8-tetrahydroquinazolin-4-yl)-7-(2-ethyl-3H-imidazo[4,5-b]pyridin-6-yl)-2,3,4,5-tetrahydro-1,4-benzoxazepine]", "values": [
      {"measurement": "IC50", "result": "≤ 10", "unit": "nM"}
    ]},
    {"smiles": "Cc1nc2ncc(-c3ccc4c(c3)CN(c3nc(CNC5CCC5)nc5c3CC(C)(C)CC5)CCO4)cc2[nH]1", "note": "[Example 597, N-({6,6-dimethyl-4-[7-(2-methyl-1H-imidazo[4,5-b]pyridin-6-yl)-2,3-dihydro-1,4-benzoxazepin-4(5H)-yl]-5,6,7,8-tetrahydroquinazolin-2-yl}methyl)cyclobutanamine]", "values": [
      {"measurement": "IC50", "result": "≤ 10", "unit": "nM"}
    ]},
    {"smiles": "c1ccc2c(N3CCOc4ccc(-c5ccc6[nH]ncc6c5)cc4C3)ccnc2c1", "note": "[Example 138, 7-(1H-indazol-5-yl)-4-quinolin-4-yl-2,3,4,5-tetrahydro-1,4-benzoxazepine]", "values": [
      {"measurement": "IC50", "result": "≥ 2000", "unit": "nM"}
    ]},
    {"smiles": "CCN1CCc2c(ncnc2N2CCOc3ccc(-c4ccc5nc(C)[nH]c5c4)cc3C2)C1", "note": "[Example 211, 4-(7-ethyl-5,6,7,8-tetrahydropyrido[3,4-d]pyrimidin-4-yl)-7-(2-methyl-1H-benzimidazol-6-yl)-2,3,4,5-tetrahydro-1,4-benzoxazepine]", "values": [
      {"measurement": "IC50", "result": "1000 to 2000", "unit": "nM"}
    ]},
    {"smiles": "Cc1nc2cc(-c3ccc4c(c3)CN(c3ncnc5c3CC3(CC5)CC3)CCO4)cnc2[nH]1", "note": "[Example 502]", "values": [
      {"measurement": "IC50", "result": "≤ 10", "unit": "nM"}
    ]},
    {"smiles": "CCCOc1ccc2ncnc(N3CCOc4ccc(-c5ccc6nc(C)[nH]c6c5)cc4C3)c2c1", "note": "[Example 162, 7-(2-methyl-1H-benzimidazol-6-yl)-4-[6-(propyloxy)quinazolin-4-yl]-2,3,4,5-tetrahydro-1,4-benzoxazepine]", "values": [
      {"measurement": "IC50", "result": "250 to 1000", "unit": "nM"}
    ]},
    {"smiles": "Cc1nc2ccc(-c3ccc4c(c3)CN(c3nc(CN(C)C)nc(C)c3CC3CC3)CCO4)cc2[nH]1", "note": "[Example 345, 1-{5-(cyclopropylmethyl)-4-methyl-6-[7-(2-methyl-1H-benzimidazo-6-yl)-2,3-dihydro-1,4-benzoxazepin-4(5H)-yl]pyrimidin-2-yl}-N,N-dimethylmethanamine]", "values": [
      {"measurement": "IC50", "result": "250 to 1000", "unit": "nM"}
    ]},
    {"smiles": "CNS(=O)(=O)c1cc(-c2ccc3c(c2)CN(c2ncnc4c2CC(C)(C)C=C4)CCO3)cnc1N", "note": "[Example 401, 2-amino-5-[4-(6,6-dimethyl-5,6-dihydroquinazolin-4-yl)-2,3,4,5-tetrahydro-1,4-benzoxazepin-7-yl]-N-methylpyridine-3-sulfonamide]", "values": [
      {"measurement": "IC50", "result": "≤ 10", "unit": "nM"}
    ]},
    {"smiles": "CCc1nc(CN(C)C)nc(N2CCOc3ccc(-c4ccc5[nH]c(C)nc5c4)cc3C2)c1C", "note": "[Example 343, 1-{4-ethyl-5-methyl-6-[7-(2-methyl-1H-benzimidazol-5-yl)-2,3-dihydro-1,4-benzoxazepin-4(5H)-yl]pyrimidin-2-yl}-N,N-dimethylmethanamine]", "values": [
      {"measurement": "IC50", "result": "1000 to 2000", "unit": "nM"}
    ]},
    {"smiles": "COc1ccc2c(N3CCOc4ccc(-c5cnc6nc[nH]c6c5)cc4C3)nc(C)nc2c1", "note": "[Example 542, 7-(1H-imidazo[4,5-b]pyridin-6-yl)-4-[2-methyl-7-(methyloxy)quinazolin-4-yl]-2,3,4,5-tetrahydro-1,4-benzoxazepine]", "values": [
      {"measurement": "IC50", "result": "50 to 250", "unit": "nM"}
    ]},
    {"smiles": "Cc1nc2ncc(-c3ccc4c(c3)CN(c3nc(CN5CCCCC5)nc5c3CC(C)(C)CC5)CCO4)cc2[nH]1", "note": "[Example 499, 4-[6,6-dimethyl-2-(piperidin-1-ylmethyl)-5,6,7,8-tetrahydroquinazolin-4-yl]-7-(2-methyl-1H-imidazo[4,5-b]pyridin-6-yl)-2,3,4,5-tetrahydro-1,4-benzoxazepine]", "values": [
      {"measurement": "IC50", "result": "50 to 250", "unit": "nM"}
    ]},
    {"smiles": "CC1(C)CCc2ncnc(N3CCOc4ccc(-c5cnc(N)c(S(=O)(=O)NC[C@H]6CCCNC6)c5)cc4C3)c2C1", "note": "[Example 389, 2-amino-5-[4-(6,6-dimethyl-5,6,7,8-tetrahydroquinazolin-4-yl)-2,3,4,5-tetrahydro-1,4-benzoxazepin-7-yl]-N-[(3S)-piperidin-3-ylmethyl]pyridine-3-sulfonamide]", "values": [
      {"measurement": "IC50", "result": "10 to 50", "unit": "nM"}
    ]},
    {"smiles": "CC1(C)CCc2ncnc(N3CCOc4ccc(-c5cnc(N)c(S(=O)(=O)NC[C@H]6CCCN6)c5)cc4C3)c2C1", "note": "[Example 382, 2-amino-5-[4-(6,6-dimethyl-5,6,7,8-tetrahydrquinazolin-4-yl)-2,3,4,5-tetrahydro-1,4-benzoxazepin-7-yl]-N-[(2R)-pyrrolidin-2-ylmethyl]pyridine-3-sulfonamide]", "values": [
      {"measurement": "IC50", "result": "10 to 50", "unit": "nM"}
    ]},
    {"smiles": "COCCOc1ccc2ncnc(N3CCOc4ccc(-c5ccc6nc(C)[nH]c6c5)cc4C3)c2c1", "note": "[Example 163, 7-(2-methyl-1H-benzimidazol-6-yl)-4-(6-{[2-(methyloxy)ethyl]oxy}quinazolin-4-yl)-2,3,4,5-tetrahydro-1,4-benzoxazepine]", "values": [
      {"measurement": "IC50", "result": "≥ 2000", "unit": "nM"}
    ]}
  ]
}
